Assay results published in patent publication US20220282217A1, “COMPOSITIONS AND METHODS FOR PREPARING T CELL COMPOSITIONS AND USES THEREOF” (priority 2019, published 2022).
Where a SMILES comes first, the peptide text is derived from it.

The molecules below were run against HLA-A02.01 (Homo sapiens, UniProt P04439, D140Y/D185E/D98H/E176V/E277Q/G131W/G231S/I119V/I121R/I166T/I218V/L300P/L318F/N151K/N90K/P208A/P217A/Q86G/Q94H/R138H/R169H/T345S) (assay: Class I MHC peptide binding affinity (displacement of radiolabeled reference peptide)). Conditions: EGFR T790M peptides; HLA allele A02.01; read-out: Affinity.
Protocol: In brief, MHCI complexes were prepared and bound to radiolabeled reference peptides. Peptides were incubated at varying concentrations with these complexes for 2 days, and the amount of remaining radiolabeled peptide bound to […] was measured using size exclusion gel-filtration.

CC[C@H](C)[C@H](NC(=O)[C@H](CC(C)C)NC(=O)[C@@H](N)CCC(N)=O)C(=O)N[C@@H](CCSC)C(=O)N[C@@H](CCC(N)=O)C(=O)N[C@@H](CC(C)C)C(=O)N[C@@H](CCSC)C(=O)N1CCC[C@H]1C(=O)N[C@@H](Cc1ccccc1)C(=O)NCC(=O)O (H-QLIMQLMPFG-OH; N-terminus and C-terminus assumed) gave a Kd of 5210 nM.

Same assay, conditions: Observed Affinity (IC50; (nM)), allele A02.01

Compared with CC[C@H](C)[C@H](N)C(=O)N[C@H](C(=O)N[C@H](C(=O)N[C@@H](CCC(=O)O)C(=O)N[C@@H](Cc1ccccc1)C(=O)N[C@@H](CCSC)C(=O)N[C@H](C(=O)N[C@@H](Cc1ccc(O)cc1)C(=O)NCC(=O)N[C@@H](CC(N)=O)C(=O)O)[C@@H](C)O)[C@@H](C)CC)[C@@H](C)CC, CC[C@H](C)[C@H](N)C(=O)N[C@H](C(=O)N[C@@H](CCC(=O)O)C(=O)N[C@@H](Cc1ccccc1)C(=O)N[C@@H](CCSC)C(=O)N[C@H](C(=O)N[C@@H](Cc1ccc(O)cc1)C(=O)NCC(=O)N[C@@H](CC(N)=O)C(=O)N[C@@H](CC(C)C)C(=O)O)[C@@H](C)O)[C@@H](C)CC (H-IIEFMTYGNL-OH; N-terminus and C-terminus assumed) is 6.3-fold higher in IC50: 1550 nM for the first, 9700 nM for the second. The first is the more potent here.

For CC[C@H](C)[C@H](NC(=O)[C@H](CCC(N)=O)NC(=O)[C@@H](N)[C@@H](C)O)C(=O)N[C@@H](CO)C(=O)N[C@@H](CO)C(=O)N[C@@H](C)C(=O)N[C@H](C(=O)N[C@@H](CCC(=O)O)C(=O)N[C@@H](Cc1ccc(O)cc1)C(=O)N[C@@H](CC(C)C)C(=O)O)[C@@H](C)O (H-TQISSATEYL-OH; N-terminus and C-terminus assumed), the IC50 was 2640 nM.

Same assay, conditions: allele A02.01; read-out: Observed Affinity (IC50; (nM))

Compared with CC[C@H](C)[C@H](NC(=O)[C@@H](NC(=O)[C@@H](NC(=O)[C@H](CC(C)C)NC(=O)[C@@H](NC(=O)[C@@H]1CCCN1C(=O)CNC(=O)CNC(=O)[C@@H](NC(=O)[C@@H](N)[C@@H](C)O)[C@@H](C)CC)[C@@H](C)O)C(C)C)[C@@H](C)CC)C(=O)O (H-TIGGPTLVII-OH; N-terminus and C-terminus assumed), CC[C@H](C)[C@H](N)C(=O)N[C@@H](CC(C)C)C(=O)N[C@H](C(=O)N[C@@H](CCCNC(=N)N)C(=O)N[C@@H](CCCCN)C(=O)N[C@@H](C)C(=O)N[C@@H](CCSC)C(=O)N[C@H](C(=O)N[C@H](C(=O)O)C(C)C)[C@@H](C)O)[C@@H](C)CC (H-ILIRKAMTV-OH; N-terminus and C-terminus assumed) is 550-fold lower in IC50: 10700 nM for the first, 19.5 nM for the second.

Going from CC[C@H](C)[C@H](N)C(=O)N[C@@H](CC(C)C)C(=O)N[C@@H](CCSC)C(=O)N[C@@H](CCC(=O)O)C(=O)N[C@@H](CC(C)C)C(=O)N[C@@H](CCSC)C(=O)N[C@@H](C)C(=O)NCC(=O)NCC(=O)N[C@@H](CC(=O)O)C(=O)O (H-ILMELMAGGD-OH; N-terminus and C-terminus assumed) to CC[C@H](C)[C@H](NC(=O)[C@H](CC(C)C)NC(=O)[C@@H](N)CCC(N)=O)C(=O)N[C@@H](CCSC)C(=O)N[C@@H](CCC(N)=O)C(=O)N[C@@H](CC(C)C)C(=O)N[C@@H](CCSC)C(=O)N1CCC[C@H]1C(=O)N[C@@H](Cc1ccccc1)C(=O)NCC(=O)O (H-QLIMQLMPFG-OH; N-terminus and C-terminus assumed), the IC50 rises from 3450 nM to 5930 nM (1.7-fold). The first is the more potent here.

Going from CC[C@H](C)[C@H](NC(=O)[C@@H](NC(=O)[C@H](CC(C)C)NC(=O)[C@@H](N)Cc1ccc(O)cc1)C(C)C)C(=O)N[C@@H](CCC(N)=O)C(=O)N[C@@H](CC(C)C)C(=O)N[C@@H](CCC(N)=O)C(=O)N[C@@H](CC(=O)O)C(=O)N[C@@H](CCCCN)C(=O)N[C@@H](Cc1ccccc1)C(=O)O (H-YLVIQLQDKF-OH) to CC(C)C[C@H](NC(=O)[C@@H](N)CC(C)C)C(=O)N[C@@H](CCC(N)=O)C(=O)N[C@H](C(=O)N[C@H](C(=O)N[C@@H](CCC(N)=O)C(=O)N[C@H](C(=O)N[C@@H](CO)C(=O)N[C@@H](Cc1ccccc1)C(=O)N[C@@H](C)C(=O)O)[C@@H](C)O)[C@@H](C)O)C(C)C (H-LLQVTQTSFA-OH; N-terminus and C-terminus assumed), the IC50 falls from 2060 nM to 677 nM (3-fold). The second is the more potent here.

First: CC[C@H](C)[C@H](NC(=O)[C@H](CC(C)C)NC(=O)[C@@H]1CCCN1C(=O)[C@H](Cc1ccccc1)NC(=O)[C@H](CC(C)C)NC(=O)[C@@H](N)CCC(=O)O)C(=O)N[C@@H](Cc1ccccc1)C(=O)N1CCC[C@H]1C(=O)N[C@@H](C)C(=O)O
Second: CC[C@H](C)[C@H](NC(=O)[C@H](Cc1ccccc1)NC(=O)[C@H](CCCNC(=N)N)NC(=O)[C@@H]1CCCN1C(=O)[C@H](CC(C)C)NC(=O)[C@H](CO)NC(=O)[C@H](CCC(N)=O)NC(=O)[C@@H](N)CC(C)C)C(=O)N[C@@H](CC(C)C)C(=O)N[C@@H](CCSC)C(=O)O
The IC50 of the first is 32-fold lower: 13 nM for the first, 413 nM for the second.

First: CSCC[C@H](NC(=O)[C@H](CCCCN)NC(=O)[C@H](CCCNC(=N)N)NC(=O)[C@H](CC(C)C)NC(=O)[C@H](CC(N)=O)NC(=O)[C@H](CC(C)C)NC(=O)[C@H](CCCNC(=N)N)NC(=O)[C@H](CC(C)C)NC(=O)[C@H](CC(C)C)NC(=O)[C@@H](N)CCSC)C(=O)O
Second: CSCC[C@H](NC(=O)[C@H](CC(C)C)NC(=O)[C@H](CCCCN)NC(=O)[C@@H](N)CCCCN)C(=O)N[C@@H](CC(C)C)C(=O)N[C@@H](CC(C)C)C(=O)N[C@@H](CCCNC(=N)N)C(=O)N[C@@H](CC(C)C)C(=O)N[C@@H](CC(N)=O)C(=O)N[C@@H](CC(C)C)C(=O)O (H-KKLMLLRLNL-OH; N-terminus and C-terminus assumed)
The IC50 of the first is 8.7-fold higher: 2510 nM for the first, 289 nM for the second. The second is the more potent here.

CC[C@H](C)[C@H](NC(=O)[C@H](CC(C)C)NC(=O)[C@@H](N)CS)C(=O)N[C@H](C(=O)N[C@@H](CO)C(=O)N[C@@H](CCCNC(=N)N)C(=O)N[C@H](C(=O)N[C@@H](CC(C)C)C(=O)N[C@@H](CC(C)C)C(=O)N[C@@H](CC(C)C)C(=O)O)[C@@H](C)O)C(C)C and CC(C)C[C@H](NC(=O)[C@H](CC(C)C)NC(=O)[C@H](CC(C)C)NC(=O)[C@H](CC(=O)O)NC(=O)[C@H](CS)NC(=O)[C@H](CC(C)C)NC(=O)[C@@H]1CCCN1C(=O)[C@@H](NC(=O)[C@@H](NC(=O)[C@@H](N)CC(N)=O)C(C)C)C(C)C)C(=O)O (H-NVVPLCDLLL-OH; N-terminus and C-terminus assumed) are within 1.5-fold of each other in IC50: 2010 nM for the first, 1370 nM for the second.

Compared with CC(C)C[C@H](NC(=O)[C@H](C)NC(=O)[C@@H](NC(=O)[C@@H]1CCCN1C(=O)[C@@H](NC(=O)[C@H](CS)NC(=O)[C@H](CO)NC(=O)[C@H](CO)NC(=O)[C@H](CC(C)C)NC(=O)[C@@H](N)CCCNC(=N)N)C(C)C)C(C)C)C(=O)O [RLSSCVPVAL] (H-RLSSCVPVAL-OH; N-terminus and C-terminus assumed), CC(C)C[C@H](NC(=O)[C@H](CC(C)C)NC(=O)[C@H](CC(=O)O)NC(=O)[C@H](CC(N)=O)NC(=O)[C@H](CC(C)C)NC(=O)[C@@H]1CCCN1C(=O)[C@@H](NC(=O)[C@@H](NC(=O)[C@@H](N)CC(N)=O)C(C)C)C(C)C)C(=O)O (H-NVVPLNDLL-OH; N-terminus and C-terminus assumed) is 54-fold higher in IC50: 54.2 nM for the first, 2900 nM for the second. The first is the more potent here.

Compared with CC(C)C[C@H](NC(=O)[C@H](C)N)C(=O)N[C@@H](Cc1c[nH]c2ccccc12)C(=O)N[C@@H](CCC(=O)O)C(=O)N[C@@H](CS)C(=O)N[C@@H](CO)C(=O)N[C@@H](CC(C)C)C(=O)N1CCC[C@H]1C(=O)N[C@@H](CCC(N)=O)C(=O)N[C@@H](C)C(=O)O (H-ALWECSLPQA-OH; N-terminus and C-terminus assumed), CC(C)C[C@H](NC(=O)[C@H](C)NC(=O)[C@H](CC(C)C)NC(=O)[C@H](CC(C)C)NC(=O)[C@@H](N)Cc1ccccc1)C(=O)N[C@@H](Cc1c[nH]c2ccccc12)C(=O)N[C@@H](CCC(=O)O)C(=O)N[C@@H](CS)C(=O)N[C@@H](CO)C(=O)O (H-FLLALWECS-OH; N-terminus and C-terminus assumed) is 10-fold higher in IC50: 9 nM for the first, 93.2 nM for the second.

First: CC(C)C[C@H](NC(=O)[C@H](C)NC(=O)[C@H](Cc1ccccc1)NC(=O)[C@H](CO)NC(=O)[C@@H](NC(=O)[C@H](CCC(N)=O)NC(=O)[C@@H](NC(=O)[C@@H](NC(=O)[C@H](CCC(N)=O)NC(=O)[C@@H](N)CC(C)C)C(C)C)[C@@H](C)O)[C@@H](C)O)C(=O)O [LQVTQTSFAL] (H-LQVTQTSFAL-OH; N-terminus and C-terminus assumed)
Second: CC(C)C[C@H](NC(=O)[C@@H](N)CC(C)C)C(=O)NCC(=O)N[C@@H](CCCNC(=N)N)C(=O)N[C@@H](CC(N)=O)C(=O)N[C@@H](CO)C(=O)N[C@@H](Cc1ccccc1)C(=O)N[C@@H](CCC(=O)O)C(=O)N[C@H](C(=O)N[C@@H](CS)C(=O)O)C(C)C (H-LLGRNSFEVC-OH; N-terminus and C-terminus assumed)
The IC50 of the first is 2.9-fold lower: 718 nM for the first, 2080 nM for the second.

Going from CC(C)C[C@H](NC(=O)[C@H](Cc1c[nH]cn1)NC(=O)[C@H](Cc1c[nH]c2ccccc12)NC(=O)[C@H](CC(C)C)NC(=O)[C@@H](N)CCCNC(=N)N)C(=O)N[C@@H](CC(C)C)C(=O)N[C@@H](CC(C)C)C(=O)N[C@@H](CCC(N)=O)C(=O)N[C@H](C(=O)O)C(C)C (H-RLWHLLLQV-OH; N-terminus and C-terminus assumed) to CC(C)C[C@H](NC(=O)[C@H](CO)NC(=O)[C@H](CC(N)=O)NC(=O)[C@H](CS)NC(=O)[C@H](CCC(=O)O)NC(=O)[C@H](Cc1c[nH]cn1)NC(=O)[C@H](CC(C)C)NC(=O)[C@@H](NC(=O)[C@H](CCC(N)=O)NC(=O)[C@@H](N)CC(C)C)C(C)C)C(=O)O, the IC50 rises from 1.3 nM to 4720 nM (3600-fold). The first is the more potent here.

Compared with CC[C@H](C)[C@H](N)C(=O)N[C@H](C(=O)N[C@@H](CCC(=O)O)C(=O)N[C@@H](Cc1ccc(O)cc1)C(=O)N[C@@H](CS)C(=O)N[C@@H](Cc1ccccc1)C(=O)N[C@@H](Cc1ccc(O)cc1)C(=O)NCC(=O)N[C@@H](CC(=O)O)C(=O)N[C@@H](CC(C)C)C(=O)O)[C@@H](C)CC (H-IIEYCFYGDL-OH; N-terminus and C-terminus assumed), CC[C@H](C)[C@H](NC(=O)[C@@H]1CCCN1C(=O)[C@H](CCCNC(=N)N)NC(=O)[C@H](CCC(N)=O)NC(=O)[C@H](CC(N)=O)NC(=O)[C@H](CCSC)NC(=O)CNC(=O)CNC(=O)[C@H](CCSC)NC(=O)[C@@H](N)CS)C(=O)O is 3.4-fold higher in IC50: 1090 nM for the first, 3670 nM for the second. The first is the more potent here.

CSCC[C@H](NC(=O)[C@H](Cc1c[nH]cn1)NC(=O)[C@@H](NC(=O)[C@H](CC(C)C)NC(=O)[C@@H](NC(=O)[C@@H]1CCCN1C(=O)[C@H](C)NC(=O)[C@H](CC(C)C)NC(=O)[C@H](C)N)[C@@H](C)O)[C@@H](C)O)C(=O)O (H-ALAPTLTHM-OH; N-terminus and C-terminus assumed) showed an IC50 of 59 nM.
